Data set [1] deals with T1, human androgen receptor (AR) (Homo sapiens, UniProt P10275).
T1 construct: expressed in transfected cells; host or cells: mouse myoblast C2C12 cells, transiently co-transfected
T1 sequence (P10275 1-920): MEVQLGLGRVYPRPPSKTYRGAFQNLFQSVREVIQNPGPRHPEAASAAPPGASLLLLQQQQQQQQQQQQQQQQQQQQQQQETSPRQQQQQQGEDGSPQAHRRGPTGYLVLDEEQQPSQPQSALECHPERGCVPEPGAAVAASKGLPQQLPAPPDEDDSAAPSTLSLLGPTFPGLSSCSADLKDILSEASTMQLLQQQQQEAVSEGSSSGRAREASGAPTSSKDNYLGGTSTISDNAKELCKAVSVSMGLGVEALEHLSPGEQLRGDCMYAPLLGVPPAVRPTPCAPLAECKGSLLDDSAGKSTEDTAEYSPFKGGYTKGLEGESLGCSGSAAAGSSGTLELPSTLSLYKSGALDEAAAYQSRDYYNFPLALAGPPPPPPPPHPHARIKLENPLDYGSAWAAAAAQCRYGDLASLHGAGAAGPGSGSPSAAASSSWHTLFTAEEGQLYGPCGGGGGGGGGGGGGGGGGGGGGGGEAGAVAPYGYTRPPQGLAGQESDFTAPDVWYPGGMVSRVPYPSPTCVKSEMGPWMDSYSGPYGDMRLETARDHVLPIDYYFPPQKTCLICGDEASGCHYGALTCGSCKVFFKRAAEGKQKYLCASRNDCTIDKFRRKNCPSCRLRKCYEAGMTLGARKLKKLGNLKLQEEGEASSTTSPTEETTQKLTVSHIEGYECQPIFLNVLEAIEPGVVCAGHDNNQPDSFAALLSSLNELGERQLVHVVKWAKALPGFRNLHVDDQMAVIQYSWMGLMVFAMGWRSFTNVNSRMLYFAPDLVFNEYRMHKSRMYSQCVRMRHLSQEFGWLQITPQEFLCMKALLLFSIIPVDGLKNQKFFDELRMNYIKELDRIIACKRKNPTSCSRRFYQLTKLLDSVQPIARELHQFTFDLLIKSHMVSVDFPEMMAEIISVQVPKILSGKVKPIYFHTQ
In words: C2C12 AR/ARE reporter assay. It counts as cell-based. In short, it runs like this: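 Mouse C2C12 myoblasts co-transfected with AR/ARE reporter were plated in charcoal-stripped serum and treated for 48 h with compound from about 0.01 nM to 10 μM. Luciferase activity gave EC50 by 4-parameter logistic fit. Efficacy is expressed as % of maximal stimulation by 10 nM methyltrienolone.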
Background: In a reporter assay the amount or activity of a reporter protein is the signal.

The target of data set [2] is T2, human AR (androgen receptor) (Homo sapiens, UniProt P10275).
T2 construct: expressed in transfected cells; host or cells: 293 cells (293-AR lysate)
T2 sequence (P10275 1-920): T1 sequence (P10275 1-920)
In words: Steroid hormone nuclear receptor binding assay, AR binding. The essentials:
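Competition binding with lysates of 293 cells overexpressing human AR, [3H]-methyltrienolone tracer, compounds from about 0.01 nM to 10 μM, overnight at 4 °C; non-specific binding set with 500 nM methyltrienolone. Bound tracer counted by scintillation after charcoal-dextran separation; IC50 converted to Ki by Cheng-Prusoff using Kd from saturation binding.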

[3] abbreviates: C2C12, read-out: C2C12 % Efficacy.
[4] abbreviates: C2C12 AR/ARE reporter assay, average of n trials, read-out: C2C12 % Efficacy.
Setting [5] is: C2C12 AR/ARE reporter assay, average of n trials, read-out: C2C12 EC50.
Where [6] appears, read: average of n trials, read-out: AR binding Ki.

Broadly, the melting point is the temperature, or range, at which the solid turns liquid. What is called EC50 is the midpoint of the concentration-response curve. In general, Ki refers to a dissociation constant, usually derived from enzyme kinetics or from competition with a known ligand.

Read-outs that look alike come from different tables or passages of the source.

For the compound `CC(C)C(=O)N[C@@H]1CCc2c(c3cc(C#N)ccc3n2Cc2cccc(F)c2)C1` (single isomer, unassigned) [Example 123], the melting point is 223 to 225 °C. In data set [1], this compound yielded an EC50 of 1.8 nM. Besides, in data set [1] (setting [3]), the Emax was 87%. For the same compound, in data set [2], affinity was put at a Ki of 1 nM.

`CC(C)C(=O)NC1CCc2c(c3cc(F)ccc3n2Cc2ccccc2F)C1` (stereo not drawn) [Example 4] registered a melting point of 156 to 158 °C. For the same compound, the Emax in data set [1] (setting [3]) came out at 36.1%.

Consider `CC(C)C(=O)NC1CCc2c(c3cc(Cl)ccc3n2Cc2ccccc2)C1` (stereo not drawn) [Example 16], for which the melting point lay in the range of 174 to 176 °C. Also, in data set [1] (setting [3]), the Emax was found to be 86%.

With `CC(C)C(=O)NC1CCc2c(c3cc(Cl)ccc3n2Cc2cccc(F)c2)C1` (stereo not drawn) [Example 21], the melting point was 187 to 189 °C. For the same compound, the Emax in data set [1] (setting [3]) came to 81%.

Turning to `COc1cccc(Cn2c3c(c4cc(Cl)ccc42)CC(NC(=O)C(C)C)CC3)c1` (stereo not drawn) [Example 23], the melting point lay in the range of 178 to 181 °C. Further, the Emax in data set [1] (setting [3]) turned out to be 54.4%.

Regarding `CC(C)C(=O)NC1CCc2c(c3cc(Cl)ccc3n2Cc2cccc(C#N)c2)C1` (stereo not drawn) [Example 24], the melting point is 225 to 228 °C (dec.). Also, in data set [1] (setting [3]), the Emax is 48.9%.

`CC(C)C(=O)NC1CCc2c(c3cc(Cl)ccc3n2Cc2ccc(F)cc2)C1` (stereo not drawn) [Example 25] showed a melting point of 175 to 178 °C. Also, the Emax in data set [1] (setting [3]) was determined as 62.7%.

Turning to `CC(C)C(=O)NC1CCc2c(c3cc(Cl)ccc3n2Cc2cc(F)cc(F)c2)C1` (stereo not drawn) [Example 29], the melting point lay in the range of 207 to 210 °C. Moreover, the Emax in data set [1] (setting [3]) came out at 64%.

`CC(C)C(=O)NC1CCc2c(c3cc(Br)ccc3n2Cc2ccccc2)C1` (stereo not drawn) [Example 30] showed a melting point of 173 to 177 °C. For the same compound, the Emax in data set [1] (setting [3]) came to 87%.

For the compound `CC(C)C(=O)NC1CCc2c(c3cc(Br)ccc3n2Cc2ccccc2Cl)C1` (stereo not drawn) [Example 32], the melting point was 196 to 198 °C. Besides, in data set [1] (setting [3]), the Emax worked out at 94.3%.

Regarding `COc1ccccc1Cn1c2c(c3cc(Br)ccc31)CC(NC(=O)C(C)C)CC2` (stereo not drawn) [Example 34], the melting point is 108 to 111 °C. Further, the Emax in data set [1] (setting [3]) was found to be 103%.

In turn, `Cc1ccc2c(c1)c1c(n2Cc2cccc(F)c2)CCC(NC(=O)C(C)C)C1` (stereo not drawn) [Example 47] yielded a melting point of 215 to 217 °C. Moreover, in data set [1] (setting [3]), the Emax is 86.3%.

The compound `CC(C)C(=O)NC1CCc2c(c3cc(C#N)ccc3n2Cc2cccc(F)c2)C1` (stereo not drawn) [Example 51, N-(6-cyano-9-(3-fluorobenzyl)-2,3,4,9-tetrahydro-1H-carbazol-3-yl)isobutyramide] registered a melting point of 195 to 199 °C. Besides, in data set [1] (setting [3]), the Emax came out at 87.5%.

The compound `CC(C)C(=O)NC1CCc2c(c3ccc(Cl)cc3n2Cc2cccc(F)c2)C1` (stereo not drawn) [Example 56] came in with a melting point of 233 to 235 °C. Besides, the Emax in data set [1] (setting [3]) was determined as 66.6%.

`CC(C)C(=O)NC1CCc2c(c3cccc(F)c3n2Cc2cccc(F)c2)C1` (stereo not drawn) [Example 58] displayed a melting point of 185 to 188 °C. For the same compound, the Emax in data set [1] (setting [3]) worked out at 62.1%.

The compound `CC(C)C(=O)N[C@@H]1CCc2c(c3cc(Br)ccc3n2Cc2cccc(F)c2)C1` [Example 122] yielded a melting point of 204 to 207 °C.

In the case of `CC(=O)c1ccc2c(c1)c1c(n2Cc2cccc(F)c2)CC[C@@H](NC(=O)C(C)C)C1` [Example 191, (R)-N-[6-Acetyl-9-(3-fluoro-benzyl)-2,3,4,9-tetrahydro-1H-carbazol-3-yl]-isobutyramide], the response in data set [1] was half-maximal at 1.2 nM (EC50). Also, the Emax in data set [1] (setting [3]) was 91.2%. Moreover, the affinity in data set [2], expressed as Ki, was 3.3 nM.

As for `N#Cc1ccc2c(c1)c1c(n2Cc2cccc(F)c2)CC[C@@H](NC(=O)C2CC2)C1` [Example 194, (R)-Cyclopropanecarboxylic acid[6-cyano-9-(3-fluorobenzyl)-2,3,4,9-tetrahydro-1H-carbazol-3-yl]amide], in data set [1], the half-maximal effective concentration (EC50) was 2 nM. In addition, the Emax in data set [1] (setting [3]) came to 95.5%. The inhibitory constant (Ki) in data set [2] turned out to be 1.3 nM.

`CC(C)C(=O)NC1CCc2c(c3cc(C=O)ccc3n2Cc2cccc(F)c2)C1` (stereo not drawn) [Example 197, N-[9-(3-Fluoro-benzyl)-6-formyl-2,3,4,9-tetrahydro-1H-carbazol-3-yl]-isobutyramide] registered a 50% effective concentration (EC50) in data set [1] of 26.8 nM. For the same compound, the Emax in data set [1] (setting [3]) amounted to 147%. The compound further gave a Ki in data set [2] of 4.2 nM.

Take `CC(C)C(=O)NC1CCc2c(c3cc(C(F)F)ccc3n2Cc2cccc(F)c2)C1` (stereo not drawn) [Example 198, N-[6-Difluoromethyl-9-(3-fluoro-benzyl)-2,3,4,9-tetrahydro-1H-carbazol-3-yl]-isobutyramide]: the Emax in data set [1] (setting [4]) was determined as 102%. For the same compound, the EC50 in data set [1] (setting [5]) is 11 nM. Also, the Ki in data set [2] (setting [6]) was determined as 3.2 nM.

In data set [1], `CC(C)C(=O)N[C@@H]1CCc2c(c3cc(C=O)ccc3n2Cc2cccc(F)c2)C1` [Example 200, (R)-N-[9-(3-Fluorobenzyl)-6-formyl-2,3,4,9-tetrahydro-1H-carbazol-3-yl]-isobutyramide] had an EC50 of 8.1 nM. In addition, the Emax in data set [1] (setting [3]) is 112%. This compound yielded a Ki in data set [2] of 2.8 nM.

For the compound `CO/N=C/c1ccc2c(c1)c1c(n2Cc2cccc(F)c2)CC[C@@H](NC(=O)C(C)C)C1` [Example 201, (R)-N-[9-(3-Fluorobenzyl)-6-(methoxyimino-methyl)-2,3,4,9-tetrahydro-1H-carbazol-3-yl]-isobutyramide], the Emax in data set [1] (setting [4]) is 79.9%. In data set [1] (setting [5]), the EC50 was 5 nM. In data set [2] (setting [6]), the inhibition constant Ki was determined as 2.9 nM.

`CO/N=C/c1ccc2c(c1)c1c(n2Cc2cccc(F)c2)CCC(NC(=O)C2CC2)C1` (stereo not drawn) [Example 202, Cyclopropanecarboxylic acid[9-(3-fluorobenzyl)-6-(methoxyimino-methyl)-2,3,4,9-tetrahydro-1H-carbazol-3-yl]-amide]: in data set [1], the concentration for a half-maximal effect (EC50) amounted to 1.5 nM. In data set [1] (setting [3]), the Emax was 90.5%. The compound further registered a Ki in data set [2] of 4.7 nM.

In the case of `O=C(N[C@@H]1CCc2c(c3cc(/C=N/O)ccc3n2Cc2cccc(F)c2)C1)C1CC1` [Example 203, (R)-Cyclopropanecarboxylic acid[9-(3-fluoro-benzyl)-6-(hydroxyimino-methyl)-2,3,4,9-tetrahydro-1H-carbazol-3-yl]-amide], the Emax in data set [1] (setting [4]) came to 73.1%. For the same compound, in data set [1] (setting [5]), the 50% effective concentration (EC50) worked out at 20.2 nM. Besides, the Ki in data set [2] (setting [6]) is 12.3 nM.

In turn, `O=Cc1ccc2c(c1)c1c(n2Cc2ccccn2)CCC(NC(=O)C2CC2)C1` (stereo not drawn) [Example 206] showed an EC50 in data set [1] of 206 nM. The Emax in data set [1] (setting [3]) was found to be 96.1%. The same compound registered a Ki in data set [2] of 99.2 nM.

The compound `CC(C)C(=O)NC1CCc2c(c3cc(C(=O)C(F)(F)F)ccc3n2Cc2cccc(F)c2)C1` (stereo not drawn) [Example 210, N-[9-(3-Fluoro-benzyl)-6-(2,2,2-trifluoro-acetyl)-2,3,4,9-tetrahydro-1H-carbazol-3-yl]-isobutyramide] had an EC50 in data set [1] of 17.6 nM. Moreover, the Emax in data set [1] (setting [3]) worked out at 71.2%. In data set [2], this compound had a Ki of 15.5 nM.

Take `Cc1nc(Cn2c3c(c4cc(C=O)ccc42)C[C@H](NC(=O)C(C)C)CC3)cs1` [Example 211, (R)-N-[6-Formyl-9-(2-methyl-thiazol-4-ylmethyl)-2,3,4,9-tetrahydro-1H-carbazol-3-yl]-isobutyramide]: the 50% effective concentration (EC50) in data set [1] is 86.7 nM. In data set [1] (setting [3]), the Emax stood at 88.4%. In data set [2], this compound showed a Ki of 43.7 nM.

Take `CO/N=C/c1ccc2c(c1)c1c(n2Cc2csc(C)n2)CC[C@@H](NC(=O)C(C)C)C1` [Example 212, (R)-N-[6-(Methoxyimino-methyl)-9-(2-methyl-thiazol-4-ylmethyl)-2,3,4,9-tetrahydro-1H-carbazol-3-yl]-isobutyramide]: the EC50 in data set [1] is 7.8 nM. Moreover, the Emax in data set [1] (setting [3]) amounted to 90.4%. The inhibition constant Ki in data set [2] was 16.7 nM.

Consider `CN(C)S(=O)(=O)NC1CCc2c(c3cc(C#N)ccc3n2Cc2cccc(F)c2)C1` (stereo not drawn) [Example 213, N-[6-Cyano-9-(3-fluoro-benzyl)-2,3,4,9-tetrahydro-1H-carbazol-3-yl]-N′,N′-dimethylmethanesulfamide], for which the midpoint of the response in data set [1], the EC50, lay at 40.2 nM. Also, the Emax in data set [1] (setting [3]) turned out to be 95.4%. In data set [2], this compound yielded a Ki of 3.2 nM.

For the origin of these results see patent US7935722B2 (Eli Lilly and Company, priority 2005, dated 2011).
